# Experiments:
# GLUTag cells [1] = experiment: GLP-1 release from GLUTag cells (GLP-1 ELISA); type: cell-based, mouse; conditions: 12.5 mM glucose, FIG. 17
# Experimental: Mouse GLUTag cells are a native intestinal cell line which expresses TRPM5. The cell line was obtained from Dr. Daniel J. Drucker in the Division of Endocrinology, Department of Medicine, at University of Toronto, and grown in Invitrogen Dulbecco's Modified Eagle's Medium (DMEM) high glucose (Cat #: 11995) with 10% fetal bovine serum (FBS) and 1× penn/strep antibiotic mix in a 37° C. incubator with 5% CO2.
# All reagents and media were pre-warmed to room temperature prior to the beginning of the experiment. Substrate diluent and the light-sensitive Substrate were thawed out right before use.
# BD 96-well Matrigel-coated plates (Fisher, Cat #: 08-774-166) with GLUTag cells were rehydrated using 100 μL of plating media (Invitrogen's (Cat #: 31985) OPTI-Modified Eagle's Medium (MEM) with 10% FBS and 1× penn/strep antibiotic mix) and incubated for 30 minutes in a 37° C. incubator with 5% CO2. GLUTag cells were then trypsinized and counted. A cell dilution with seeding density of 7.5×10^5 cells/ml of GLUTag cells was created. The rehydration media was aspirated from the Matrigel coated plate. […] of cell dilution were plated into each well of the plate. The plates were then incubated overnight in a 37° C. incubator with 5% CO2.
# The following protocol utilized the Millipore GLP-1 ELISA Kit (Cat. #: EGLP-35K) to analyze GLP-1 secretion from GLUTag cells in the presence of TRPM5 inhibitors/enhancers and glucose.
# Stock solutions and dilution plates of TRPM5 inhibitors or enhancers were prepared. 1% of bovine serum albumin (BSA) was added to Krebb's Ringer Bicarbonate Buffer (KRBB) right before use. KRBB consists of 118.5 mM NaCl, 2.54 mM CaCl2.2H2O, 1.19 mM KH2PO4, 4.74 mM KCl, 25 mM NaHCO3, 1.19 mM MgSO4.7H2O, and 10 mM HEPES buffer at pH 7.4. The cell plates were incubated with 100 μL of KRBB for 30 minutes. The KRBB buffer was then aspirated. This incubation step was repeated once. The KRBB buffer was aspirated and replaced with 150 μL of the same buffer containing various concentration of TRPM5 inhibitors or enhancers and glucose, i.e. 12.5 mM glucose and 1.5 μM TRPM5 inhibitors. KRBB buffer without the TRPM5 inhibitors/enhancers and glucose were also tested in triplicates. Static incubations of treated cells were then performed for 2 h in a 37° C. incubator with 5% CO2.
# During the last 30 minutes of the two-hour incubation, 96-well ELISA plates were prepared as follows. […]
# TRPM5 = biological target: T1, TRPM5 (Homo sapiens, UniProt Q9NZQ8); experiment: TRPM5 inhibition (FLIPR Membrane Potential Assay); type: cell-based
# T1 sequence (Q9NZQ8 1-1165): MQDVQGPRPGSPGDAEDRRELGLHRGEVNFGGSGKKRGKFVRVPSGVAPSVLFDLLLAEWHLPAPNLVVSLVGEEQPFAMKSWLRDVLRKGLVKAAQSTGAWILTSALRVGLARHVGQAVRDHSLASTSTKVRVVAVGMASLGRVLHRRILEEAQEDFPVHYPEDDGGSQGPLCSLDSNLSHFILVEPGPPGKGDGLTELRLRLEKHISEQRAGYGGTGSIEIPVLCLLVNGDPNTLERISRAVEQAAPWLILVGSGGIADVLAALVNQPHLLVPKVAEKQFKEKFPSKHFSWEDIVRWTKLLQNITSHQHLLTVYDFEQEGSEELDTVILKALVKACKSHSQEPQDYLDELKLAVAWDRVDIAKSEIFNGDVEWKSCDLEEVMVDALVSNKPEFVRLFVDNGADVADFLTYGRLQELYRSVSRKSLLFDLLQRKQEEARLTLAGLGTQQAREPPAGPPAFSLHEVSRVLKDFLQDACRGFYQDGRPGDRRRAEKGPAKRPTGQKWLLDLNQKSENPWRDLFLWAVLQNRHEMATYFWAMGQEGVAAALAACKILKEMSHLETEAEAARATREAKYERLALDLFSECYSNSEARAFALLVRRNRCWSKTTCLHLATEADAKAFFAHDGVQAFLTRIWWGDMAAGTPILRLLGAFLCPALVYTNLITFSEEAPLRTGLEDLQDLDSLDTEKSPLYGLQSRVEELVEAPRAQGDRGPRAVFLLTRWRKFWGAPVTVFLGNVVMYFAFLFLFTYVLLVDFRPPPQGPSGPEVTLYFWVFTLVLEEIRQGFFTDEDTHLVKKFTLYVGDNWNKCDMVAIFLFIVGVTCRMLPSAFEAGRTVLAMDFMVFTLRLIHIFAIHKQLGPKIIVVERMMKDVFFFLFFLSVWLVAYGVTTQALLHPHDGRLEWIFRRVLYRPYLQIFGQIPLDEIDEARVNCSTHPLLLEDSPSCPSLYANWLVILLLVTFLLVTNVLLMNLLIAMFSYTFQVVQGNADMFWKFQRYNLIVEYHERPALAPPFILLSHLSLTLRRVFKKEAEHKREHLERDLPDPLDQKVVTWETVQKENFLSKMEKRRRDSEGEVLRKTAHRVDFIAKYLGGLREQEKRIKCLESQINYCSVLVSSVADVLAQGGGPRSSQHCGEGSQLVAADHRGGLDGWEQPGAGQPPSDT
# GLUTag cells [2] = experiment: GLP-1 release from GLUTag cells (GLP-1 ELISA); type: cell-based, mouse; conditions: for IC50: Mus musculus, GLUTag cells
# [3] = moderately high glucose (3.3 mM), FIG. 18
IC50 (TRPM5) [nM],"IC50 (GLUTag cells [2]; low glucose (0.1 mM), FIG. 19) [nM]",SMILES,GLP-1 secretion (GLUTag cells [1]),"efficacy and potency of GLP-1 secretion, compared between compounds (GLUTag cells [1])","GLP-1 secretion (GLUTag cells [2]; 10 mM glucose, FIG. 16)","GLP-1 release (GLUTag cells [2]; low glucose (0.1 mM), FIG. 19)",GLP-1 release (GLUTag cells [2]; [3])
600,600,"COc1ccc(/C=N/NC(=O)Cc2cccc3ccccc23)cc1OC [Example 3, (E)-N′-(3,4-Dimethoxybenzylidene)-2-(naphthalene-1-yl)acetohydrazide]",increase GLP-1 secretion,increases the efficacy of GLP-1 secretion,enhances GLP-1 secretion,increase GLP-1 release,increase GLP-1 release
500,111,"COc1ccc(/C=N/NC(=O)CCn2c3ccccc3c3ccccc32)cc1OC [Example 23, 3-Carbazol-9-ylpropionic acid (3,4-dimethoxybenzylidene)hydrazide]",increase GLP-1 secretion,more potent than the compound of Example 3,,increase GLP-1 release,increase GLP-1 release

# — patent publication US8193168B2, “Use of a TRPM5 inhibitor to regulate insulin and GLP-1 release” (Redpoint Bio Corporation, priority 2007, dated 2012)
